Where no end group is shown, it is not given here.
Assays:
[1] = test system: Meth A sarcoma; experiment: Tumor growth inhibition (tumor volume) in solid tumor-bearing mice, subcutaneous administration; assay type: in vivo, BALB/c mice; conditions: for tumor growth inhibiting effect (tumor volume): FIG. 3, days 1 to 11, vs distilled water; for antitumor activity (tumor volume) / order of intensities of the antitumor activity: FIG. 10
Description: Solid tumor-bearing mice were prepared by subcutaneously administering 0.2 ml of Meth A sarcoma cells (5×10^6 cells/ml) into the left flank of five-week-old BALB/c male mice (Japan SLC). After 6 to 10 days from sarcoma implantation, when the diameter of the post-implantation tumor in tumor-bearing mice arrived at 4 mm was taken as day 1 and, on days 1 to 11, distilled water (D.W.) as a control or 20 mg/kg/day of each of the above dendrimers (1) to (3) was subcutaneously administered for 11 consecutive days (4 mice were used in each group).
The antitumor effect of each dendrimer peptide was evaluated 6 days after implantation and thereafter by examining the tumor growth, the body weight change and the survival time (days) as an indicator of side effect. At the same time, the minor axis and major axis of each tumor were measured and the tumor volume was calculated according to the formula shown below.
Tumor volume=0.4×a×b^2 (a: major axis, b: minor axis)
Doses of 10 mg/kg×twice/day and 20 mg/kg×twice/day of the dendrimer peptide derived from the peptide of SEQ ID NO:1 as synthesized in Example 4 (1) and a dose of 20 mg/kg×twice/day of a dendrimer peptide (SEQ ID NO:18) derived from a peptide resulting from replacement of an arbitrary sequence for the sequence shown in SEQ ID NO:1, and distilled water (DW) as a control were subcutaneously administered to mice on days 1 to 10 after tumor cell implantation according to the method of Example 4 (2), and the tumor growth inhibiting activities were examined. Four to six mice per group were subjected to the experiment. The results obtained are shown in FIG. 5 in the same manner as in FIG. 3 (ordinate: tumor volume (cm^3), abscissa: days after tumor cell implantation (days)).
The three short-chain peptides synthesized and physiological saline as a control were respectively administered subcutaneously to mice on days 1 to 10 following tumor cell implantation according to the method of Example 4 (2), and the tumor growth inhibiting activities were examined. The results obtained are shown in FIG. 6 in the same manner as in FIG. 3.
(§1) A dose of 20 mg/kg/day of each of the peptides synthesized in the above manner or distilled water (DW) as a control was subcutaneously administered to mice on days 4 to 9 after tumor cell implantation according to the method of Example 4 (2), and the tumor growth inhibiting activities were examined. Three to five mice per group were used in the experiment. The results are shown in FIG. 7 in the same manner as in FIG. 3.
as §1, with “or physiological saline” for “or distilled water (DW)”, “days 1” for “days 4”, “to 10” for “to 9”, “examined. Four or” for “examined. Three to”, “FIG. 8” for “FIG. 7”
as §1, with “water” for “water (DW)”, “days 1” for “days 4”, “to 10” for “to 9”, “examined. Five or six” for “examined. Three to five”, “FIG. 9” for “FIG. 7”
as §1, with “water or physiological saline” for “water (DW)”, “days 1” for “days 4”, “to 10” for “to 9”, “examined. Five or six” for “examined. Three to five”, “FIG. 10 (results with the peptides of SEQ ID NO:28-32) and FIG. 11 (results with the peptides of SEQ ID NO:33-35)” for “FIG. 7”, “3. […]” for “3.”

[2] = test system: B16BL6 melanoma tumor tissue; experiment: Competitive inhibition experiment using the respective phages and synthetic 15-residue peptides; assay type: in vivo, C57BL/6 mice; conditions: for % Dose/100 mg tissue: tail vein; for inhibitory activity against accumulation of phages Nos. 5 and 6: synthetic peptides with common sequence WRP
Description: The synthetic peptides having the amino acid sequences shown in SEQ ID NO:1, 5 and 6 were respectively administered simultaneously with the phages No. 1, No. 5 and No. 6 in a similar manner as in Example 1 (5). Each peptide was synthesized as in Example 2.
(§2) Thus, 10 days after implantation of B16BL6 melanoma (1×10^6 cells) into five-week-old C57BL/6 mice (obtained from Japan SLC), a mixed solution (0.2 ml) of 0.25 μmol of one of the above synthetic peptides and the respective phage (1×10^8 colony forming units) was administered into the tail vein of each tumor-bearing mouse under anesthesia, and the colony forming units of the phage accumulated in the tumor tissue were counted in a similar manner as mentioned above.
In a control group, synthetic peptide-free phage solutions (1×10^8 colony forming units) were administered.
Phages accumulated in neovascular tissues in tumor tissues were counted through colony formation, and each synthetic peptide was evaluated for its inhibitory effect on phage accumulation using, as a reference value, the ratio of accumulation of the peptide-expressing phage in tumor without simultaneous administration of the synthetic peptide.

[3] = test system: B16BL6 melanoma tumor tissue; experiment: Competitive inhibition experiment using the respective phages and synthetic 8-residue or 5-residue peptides; assay type: in vivo, C57BL/6 mice; conditions: for inhibition of phage accumulation in tumor by 5-residue synthetic peptides: FIG. 2, SEQ ID NO:15 with phage No. 5, SEQ ID NO:16 with phage No. 6; for cross reactivity between phages / inhibitory activity compared with the 15-residue synthetic peptides / inhibition of phage accumulation by 8-residue synthetic peptides: FIG. 1; for inhibition of phage accumulation by 8-residue synthetic peptides: phages expressing the corresponding 15-residue peptides (Nos. 5 and 6)
Description: as §2
Using a similar method as described above under (2) and using the four short-chain peptides (SEQ ID NO:13 to 16) obtained as mentioned above under (2) in lieu of the synthetic peptides (SEQ ID NO:5 and 6), the synthetic peptides and the respective phages were administered and colony forming units for the phages accumulated in the tumor tissue were counted, and the short-chain synthetic peptides were evaluated for their inhibitory effect on phage accumulation. In a control group,synthetic peptide-free phage solutions (1×10^8 colony forming units) were administered.
In each figure, the ordinate denotes the phase accumulation percentage (%) and the abscissa denotes the phage number. In FIG. 1, the open bar is for the group (control group) given the phage alone without administration of any synthetic peptide, the shaded bar is for the group given the short-chain synthetic peptide shown in SEQ ID NO:13 and the closed bar is for the group given the short-chain synthetic peptide shown in SEQ ID NO:14.
In FIG. 2, the open bar is for the group (control group) given the phage alone without administration of any synthetic peptide, the closed bar is for the group given the short-chain peptide shown in SEQ ID NO:15 (where phage No. 5 was used) and the shaded bar is for the group given the short-chain peptide shown in SEQ ID NO:16 (where phage No. 6 was used).

[4] = FIG. 6, subcutaneously, days 1 to 10, vs physiological saline
[5] = accumulation of phage No. 1 (1×10^8 cfu) co-administered with 0.25 μmol synthetic peptide
[6] = accumulation of phage No. 5 (1×10^8 cfu) co-administered with 0.25 μmol synthetic peptide
[7] = accumulation of phage No. 6 (1×10^8 cfu) co-administered with 0.25 μmol synthetic peptide
[8] = inhibition of phage No. 1 accumulation in tumor by 0.25 μmol synthetic peptide
[9] = inhibition of phage No. 5 accumulation in tumor by 0.25 μmol synthetic peptide
[10] = inhibition of phage No. 6 accumulation in tumor by 0.25 μmol synthetic peptide
[11] = 20 mg/kg/day subcutaneously, days 1 to 10

(ASSSYPLIHWRPWAR)8-LYs4-Lys2-Lys-βAla (also: octameric lysine dendrimer (Lys4-Lys2-Lys-βAla core), 8 copies)
tumor growth inhibiting effect (tumor volume) ([1]; 20 mg/kg/day subcutaneously): marked tumor growth inhibiting effects

(DRWRPALPVVLFPLH)8-Lys4-Lys2-Lys-βAla (also: octameric lysine dendrimer (Lys4-Lys2-Lys-βAla core), 8 copies)
tumor growth inhibiting effect (tumor volume) ([1]; 20 mg/kg/day subcutaneously): marked tumor growth inhibiting effects

(PRPGAPLAGSWPGTS)8-Lys4-Lys2-Lys-βAla (also: octameric lysine dendrimer (Lys4-Lys2-Lys-βAla core), 8 copies)
tumor growth inhibiting effect (tumor volume) ([1]; 20 mg/kg/day subcutaneously): marked tumor growth inhibiting effects | tumor growth inhibiting activity (tumor volume) ([1]; FIG. 5, 10 and 20 mg/kg×twice/day subcutaneously, days 1 to 10): dose-dependent tumor growth inhibiting activity

APRPG (APRPG-NH2) [SEQ ID NO: 17]
tumor growth inhibiting activity (tumor volume) [1, 4]: tendency toward inhibition of tumor growth

ASSSYPLIHWRPWAR (phage library) [SEQ ID NO: 6]
% Dose/100 mg tissue [2, 5]: 5.92 × 10^−3 % Dose/100 mg tissue | % Dose/100 mg tissue [2, 6]: 3.61 × 10^−3 % Dose/100 mg tissue | % Dose/100 mg tissue [2, 7]: 6.43 × 10^−3 % Dose/100 mg tissue | Accumulation inhibition % [2, 8]: 55% | Accumulation inhibition % [2, 9]: 76% | Accumulation inhibition % [2, 10]: 44% | inhibitory activity against accumulation of phages Nos. 5 and 6 [2]: crosswise inhibitory activity

DRWRPALPVVLFPLH (phage library) [SEQ ID NO: 5]
% Dose/100 mg tissue [2, 5]: 6.36 × 10^−3 % Dose/100 mg tissue | % Dose/100 mg tissue [2, 6]: 5.08 × 10^−3 % Dose/100 mg tissue | % Dose/100 mg tissue [2, 7]: 6.60 × 10^−3 % Dose/100 mg tissue | Accumulation inhibition % [2, 8]: 52% | Accumulation inhibition % [2, 9]: 66% | Accumulation inhibition % [2, 10]: 43% | inhibitory activity against accumulation of phages Nos. 5 and 6 [2]: crosswise inhibitory activity | tumor growth inhibiting activity (tumor volume) ([1]; FIG. 7, 20 mg/kg/day subcutaneously, days 4 to 9): have tumor growth inhibiting activity

HWRPW (HWRPW-NH2) [SEQ ID NO: 16]
inhibition of phage accumulation in tumor by 5-residue synthetic peptides [3]: inhibit likewise the accumulation in tumor of the phages

PRPGAPLAGSWPGTS (phage library) [SEQ ID NO: 1]
% Dose/100 mg tissue [2, 5]: 5.95 × 10^−3 % Dose/100 mg tissue | % Dose/100 mg tissue [2, 6]: 1.35 × 10^−2 % Dose/100 mg tissue | % Dose/100 mg tissue [2, 7]: 1.14 × 10^−2 % Dose/100 mg tissue | Accumulation inhibition % [2, 8]: 55% | Accumulation inhibition % [2, 9]: 9%

RWRPA (RWRPA-NH2) [SEQ ID NO: 15]
inhibition of phage accumulation in tumor by 5-residue synthetic peptides [3]: inhibit likewise the accumulation in tumor of the phages

SEQ ID NO: 13: 8-Residue peptide comprising positions 1 to 8 of SEQ ID NO: 5 (DRWRPALP; phage library)
cross reactivity between phages [3]: showed cross reactivity | inhibitory activity compared with the 15-residue synthetic peptides [3]: higher in inhibitory activity than the 15-resiude synthetic peptides | inhibition of phage accumulation by 8-residue synthetic peptides [3]: inhibited the accumulation of the phages

SEQ ID NO: 14: 8-Residue peptide comprising positions 8 to 15 of SEQ ID NO: 6 (IHWRPWAR; phage library)
cross reactivity between phages [3]: showed cross reactivity | inhibitory activity compared with the 15-residue synthetic peptides [3]: higher in inhibitory activity than the 15-resiude synthetic peptides | inhibition of phage accumulation by 8-residue synthetic peptides [3]: inhibited the accumulation of the phages

SEQ ID NO: 19: 12-Residue peptide containing positions 1 to 8 of SEQ ID NO: 1 (ADGAPRPGAPLA; phage library)
tumor growth inhibiting activity (tumor volume) [1, 4]: tendency toward inhibition of tumor growth

SEQ ID NO: 28: 4-Residue peptide comprising positions 2 to 5 of SEQ ID NO: 5 (RWRP; phage library)
antitumor activity (tumor volume) [1, 11]: has antitumor activity | order of intensities of the antitumor activity [1, 11]: peptide of SEQ ID NO:28=peptide of SEQ ID NO:29>peptide of SEQ ID NO:30=peptide of SEQ ID NO:31>peptide of SEQ ID NO:32

SEQ ID NO: 29: 4-Residue peptide comprising positions 9 to 12 of SEQ ID NO: 6 (HWRP; phage library)
antitumor activity (tumor volume) [1, 11]: has antitumor activity | order of intensities of the antitumor activity [1, 11]: peptide of SEQ ID NO:28=peptide of SEQ ID NO:29>peptide of SEQ ID NO:30=peptide of SEQ ID NO:31>peptide of SEQ ID NO:32

SEQ ID NO: 30: 4-Residue peptide comprising positions 3 to 12 of SEQ ID NO: 5 (WRPA; phage library)
antitumor activity (tumor volume) [1, 11]: has antitumor activity | order of intensities of the antitumor activity [1, 11]: peptide of SEQ ID NO:28=peptide of SEQ ID NO:29>peptide of SEQ ID NO:30=peptide of SEQ ID NO:31>peptide of SEQ ID NO:32

SEQ ID NO: 31: 4-Residue peptide comprising positions 10 to 13 of SEQ ID NO: 6 (WRPW; phage library)
antitumor activity (tumor volume) [1, 11]: has antitumor activity | order of intensities of the antitumor activity [1, 11]: peptide of SEQ ID NO:28=peptide of SEQ ID NO:29>peptide of SEQ ID NO:30=peptide of SEQ ID NO:31>peptide of SEQ ID NO:32

Trp-Arg-Pro (WRP; phage library) [SEQ ID NO: 32]
antitumor activity (tumor volume) [1, 11]: has antitumor activity | order of intensities of the antitumor activity [1, 11]: peptide of SEQ ID NO:28=peptide of SEQ ID NO:29>peptide of SEQ ID NO:30=peptide of SEQ ID NO:31>peptide of SEQ ID NO:32

From patent US6753310B1, “Neovascular-specific peptides” (Otsuka Pharmaceutical Co., Ltd., priority 1998, dated 2004)
